In publication PMC10819979, “Antitumor Mechanism and Therapeutic Potential of Cordycepin Derivatives” (Molecules, 2024):

Legend:
[1] = test system: Bax; test: Western Blot, Bax expression in MCF7 cells; format: cell-based; details: MCF7, 14, 28, 56 μM, 48 h
Method: (§1) Cells were cultured in the medium for 24 h and treated with compounds in different concentrations and HCPT for 48 h. After lysis buffer (RIPA: PMSF = 100:1) was used to lyse cells. The lysate was further sonicated and centrifuged at 12,000 rpm for 15 min, then the supernatant obtained was collected and the denatured protein mixture was subjected to SDS gel electrophoresis and transferred to nitrocellulose membranes, and blocked with containing 5% nonfat milk. Then, the membranes were incubated with the primary antibodies (1:1000, overnight 4 °C) and secondary antibodies (1:5000, 1 h). Then, ECL Solution was used to detect the antigen–antibody complexes. The data were analyzed by NIH Image J 1.53a software.

[2] = test system: Caspase-9; test: Western Blot, Caspase-9 expression in MCF7 cells; format: cell-based; details: MCF7, 14, 28, 56 μM, 48 h
Method: as §1

[3] = test system: Bcl-2; test: Western Blot, Bcl-2 expression in MCF7 cells; format: cell-based; details: MCF7, 14, 28, 56 μM, 48 h
Method: as §1

[4] = test system: MCF-10A cells; test: In vitro cytotoxicity against normal breast cell line; format: cell-based
Method: (§2) MCF7, HepG2, SGC-7901 and MCF-10A were purchased from the National Infrastructure of Cell Line Resources in the Chinese Academy of Sciences (Shanghai Institute of Biochemistry and Cell Biology, Shanghai, China). Cells were maintained using RPMI-1640 medium with 10% fetal bovine serum. The cells were maintained at 37 °C in a 5% CO2-containing incubator for all treatments. Logarithmic growth phase cells were used in all experiments.
(§3) The effect of compounds on the proliferation of cancer cells was determined with an MTT assay. Cells monolayer in exponential growth were seeded in 96-well plates at 5 × 10^3 cells/well. After cultured at 37 °C for 24 h, the culture medium was removed, then compounds (3a–4c) (1.25, 2.5, 5, 10, 20, 40, 80 μM) and HCPT (4, 8, 16 μM) were added. After 48 h incubation, 100 µL of MTT was added to each well and then cultured for 4 h in a 37 °C incubator. After that, the medium was aspirated, 150 µL of DMSO was then added to each well, and the 96-well plates were placed on an orbital shaker for 12 min until the formazan dissolved completely. The absorbance was measured at a test wavelength of 490 nm with a microplate reader, the optical density (OD) values were tested and the inhibitory rate and half inhibitory concentration (IC50) were calculated for each administration group.

[5] = test system: MCF7 cells; test: Apoptosis of MCF7 cells by flow cytometry; format: cell-based; details: MCF7, 56 μM, 48 h, n = 3
Method: Cells were cultured in the medium for 24 h and treated with compounds in different concentrations and HCPT incubated for 48 h. The cells were centrifuged at 1000 rpm for 10 min and washed with PBS. Subsequently, the cells were […] stained with annexin V-FITC (10 μL) and propidium iodide (PI; 10 μL). The proportion of apoptotic cells was then measured by flow cytometry.

[6] = test system: SGC-7901 cells; test: MTT cell proliferation assay, SGC-7901; format: cell-based; details: Homo sapiens, 48 h incubation, x̄ ± s, n = 6
Method: as §2, §3

[7] = test system: MCF7 cells; test: Mitochondrial membrane potential assay (rhodamine 123, flow cytometry); format: cell-based; details: MCF7, dose–effect relationship
Method: MCF7 cells were cultured in 6-well plates, after treatment with compounds in different concentrations and positive control group (HCPT), cells were harvested, washed with PBS, and then stained with rhodamine 123 (100 µg) for 30 min at 37 °C. The cells were collected by pipetting, washed twice with PBS and analyzed by flow cytometry (BD Biosciences, San Jose, CA, USA).

[8] = test system: MCF7 cells; test: Cell cycle detection by flow cytometry (PI); format: cell-based; details: 14, 28 and 56 μM, dose-dependent
Method: After the treatments, the harvested cells were incubated at 70% in ice-ethanol overnight. Subsequently, they were washed twice using PBS and incubated with propidium iodide (PI) and RNase A. Finally, the proportions of cells in different cell cycle phases were determined by flow cytometry.

[9] = test system: HepG2 cells; test: MTT cell proliferation assay, HepG2; format: cell-based; details: Homo sapiens, 48 h incubation, x̄ ± s, n = 6
Method: as §2, §3

[10] = test system: p53; test: Western Blot, p53 expression in MCF7 cells; format: cell-based; details: MCF7, 14, 28, 56 μM, 48 h
Method: as §1

[11] = test system: MCF7 cells; test: MTT cell proliferation assay, MCF7; format: cell-based; details: Homo sapiens, 48 h incubation, x̄ ± s, n = 6
Method: as §2, §3

[12] = test system: Caspase-3; test: Western Blot, Caspase-3 expression in MCF7 cells; format: cell-based; details: MCF7, 14, 28, 56 μM, 48 h
Method: as §1

[13] = test system: MCF7; set-up: method as in PMID 32163051, PMID 22821173; details: breast cancer cell viability; cited from earlier work
[14] = test system: MDA-MB-453 cells; set-up: method as in PMID 32163051, PMID 22821173; details: breast cancer cell viability; cited from earlier work

| SMILES | IC50 [6] [µM] | IC50 [9] [µM] | IC50 [11] [µM] | also measured |
| --- | --- | --- | --- | --- |
| O=C(Nc1ncnc2c1ncn2[C@@H]1O[C@H](CO)C[C@H]1O)c1cccs1 [Compound 4a, 6-Thiophenecarboxamide-3′-deoxyadenosine] | 38.93 ± 0.06 | 68.8 ± 3.34 | 27.6 ± 0.52 | expression of Bax [1]: up-regulate; expression of Caspase-9 [2]: up-regulate; expression of Bcl-2 protein [3]: down-regulate; in vitro cytotoxicity against MCF-10A [4]: low toxicity; percentage of apoptotic cells [5]: 50.422 ± 1.862%; positive expression rate and cell membrane potential with increase in dose [7]: decrease gradually; effect on MCF7 cell cycle [8]: cell cycle arrest at the G0/G1 phase; expression of p53 [10]: up-regulate; expression of Caspase-3 [12]: up-regulate |
| CC(C)(C)[Si](C)(C)OC[C@@H]1C[C@@H](O)[C@H](n2cnc3c(NC(=O)c4ccco4)ncnc32)O1 [Compound 3b, 5′-O-(Tert-butyldimethylsilyl)-6-furancarboxamide-3′-deoxyadenosine] | 41.7 ± 2.36 | 60.4 ± 1.15 | 98.03 ± 0.04 |  |
| CC[C@@]1(O)C(=O)OCc2c1cc1n(c2=O)Cc2cc3cc(O)ccc3nc2-1 [10-hydroxycamptothecin (HCPT), 10-hydroxycamptothecin, reference compound] | 7.96 ± 0.65 | 6.56 ± 0.45 | 7.56 ± 0.05 |  |
| CC(C)(C)[Si](C)(C)OC[C@@H]1C[C@@H](O)[C@H](n2cnc3c(NC(=O)c4ccc(Cl)nc4)ncnc32)O1 [Compound 3c, 5′-O-(Tert-butyldimethylsilyl)-6-6-chloroformamide-3′-deoxya-denosine] | 82.6 ± 1.48 | 87.01 ± 0.04 | 45.8 ± 1.01 |  |
| O=C(Nc1ncnc2c1ncn2[C@@H]1O[C@H](CO)C[C@H]1O)c1ccco1 [Compound 4b, 6-Furancarboxamide-3′-deoxyadenosine] | 86.3 ± 2.35 | 33.37 ± 0.08 | 40.9 ± 1.67 |  |
| CC(C)(C)[Si](C)(C)OC[C@@H]1C[C@@H](O)[C@H](n2cnc3c(NC(=O)c4cccs4)ncnc32)O1 [Compound 3a, 5′-O-(Tert-butyldimethylsilyl)-6-thiophenecarboxamide-3′-deoxya-denosine] | 102 ± 1.08 | 134 ± 5.12 | 114 ± 2.03 |  |
| O=C(Nc1ncnc2c1ncn2[C@@H]1O[C@H](CO)C[C@H]1O)c1ccc(Cl)nc1 [Compound 4c, 6-6-Chloronicotinamide-3′-deoxyadenosine] | 80.4 ± 1.05 | 48.4 ± 0.79 | 45.3 ± 0.58 |  |
| Nc1ncnc2c1ncn2[C@@H]1O[C@H](CO)C[C@H]1O [Cordycepin] | 51.3 ± 3.77 | 51.8 ± 1.36 | 46.9 ± 1.62 | IC50 [13]: 135 µM; IC50 [14]: 70 µM |
